According to patent US6046192A, “Phenylethanolaminotetralincarboxamide derivatives” (Kissei Pharmaceutical Co., Ltd., priority 1996, dated 2000):

What was measured:
β2 -adrenergic receptor = molecular target: T1, β2 -adrenergic receptor (Rattus norvegicus, UniProt P10608); assay: Spontaneous contractions of isolated pregnant rat myometrium (β2-adrenergic receptor stimulating activity); conditions: isolated pregnant rat uterus (SD, pregnancy day 21), Magnus method; read-out: EC50 value (activity to relax 50% of the spontaneous contractions of rat myometrium)
T1 construct: longitudinal uterine muscle strips (about 15 mm in length and about 5 mm in width) free from the basal plate were prepared; from tissue; host or cells: longitudinal uterine muscle strips of pregnant SD rats (pregnancy day 21)
T1 sequence (P10608 whole entry): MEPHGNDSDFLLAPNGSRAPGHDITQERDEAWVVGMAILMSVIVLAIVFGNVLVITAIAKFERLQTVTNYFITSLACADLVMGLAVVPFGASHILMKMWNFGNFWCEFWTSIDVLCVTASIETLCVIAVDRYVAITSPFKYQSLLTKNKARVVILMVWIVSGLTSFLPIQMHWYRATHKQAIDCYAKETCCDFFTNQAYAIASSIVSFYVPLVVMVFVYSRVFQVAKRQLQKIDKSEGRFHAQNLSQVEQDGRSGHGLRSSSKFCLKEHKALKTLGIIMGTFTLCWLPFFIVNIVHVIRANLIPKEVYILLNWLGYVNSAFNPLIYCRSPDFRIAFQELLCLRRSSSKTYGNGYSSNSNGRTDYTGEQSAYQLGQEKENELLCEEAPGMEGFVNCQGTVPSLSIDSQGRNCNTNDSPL
Procedure: Thus, the compounds of the present invention have a markedly potent β2 -adrenergic receptor stimulating effect and therefore are remarkably useful as β2 -adrenergic receptor stimulating agents.
Action of Drugs on the Spontaneous Contractions of Isolated Pregnant Rat Myometrium
The uteri of pregnant SD rats (pregnancy day 21) were isolated and longitudinal uterine muscle strips (about 15 mm in length and about 5 mm in width) free from the basal plate were prepared. The experiment was conducted according to the Magnus method. The preparations with a tension of 1 g were exposed to Locke-Ringer solution maintained at 37° C. and gassed with a mixture of 95% of oxygen and 5% of carbon dioxide. Spontaneous contractions of myometrium were induced isometrically via a pressure transducer and recorded on a rectigram. The drug efficacy was evaluated as 50% inhibitory drug concentration (i.e., EC50 value) by comparing the total degree of uterine contraction during 5 minutes before the addition of the drug with the total degree of uterine contraction during 5 minutes after the addition of the drug.

β1 -adrenergic receptor = assay: Atrial contraction of isolated rat atrium (β1-adrenergic receptor stimulating activity); conditions: isolated rat atrium (SD male), Magnus method
Procedure: Thus, the compounds of the present invention have a markedly weaker β1 -adrenergic receptor stimulating effect in comparison with the aforementioned β2 -adrenergic receptor stimulating effect.
Action of Drugs on the Atrial Contraction of Isolated Rat Atrium
The atria of SD male rats (350 to 400 g in body weight) were isolated and the experiment was conducted according to the Magnus method. The preparations with a tension of 1 g were exposed to Krebs-Henseleit solution maintained at 37° C. and gassed with a mixture of 95% of oxygen and 5% of carbon dioxide. The atrial contraction was induced isometrically via a pressure transducer and recorded on a rectigram. After addition of the drug, its efficacy was evaluated as drug concentration which increases 20 beats per minute of heart rate (i.e., EC20 value).

ICR mice = assay: Acute toxicity; format: in vivo; conditions: female ICR mice, intravenous, 50 mg/kg in saline
Procedure: To 4 female ICR mice of 4 weeks age was administered intravenously 2-[(2S)-2-[[(2R)-2-hydroxy-2-(4-hydroxyphenyl)-ethyl]amino]-1,2,3,4-tetrahydronaphthalen-7-yloxy]-N,N-dimethylacetamide dissolved in saline at dose of 50 mg/kg. No death of animals was observed during 24 hours after the administration.

Compound: CN(C)C(=O)COc1ccc2c(c1)C[C@@H](NC[C@H](O)c1ccc(O)cc1)CC2 [2-[(2S)-2-[[(2R)-2-Hydroxy-2-(4-hydroxyphenyl)ethyl]-amino]-1,2,3,4-tetrahydronaphthalen-7-yloxy]-N,N-dimethylacetamide]
- EC50 (β2 -adrenergic receptor): 15 nM
- EC20 value (activity to increase rat heart rate 20 beats per minute) (β1 -adrenergic receptor): 1.6×10^-6 molar concentration
- death of animals during 24 hours after the administration (ICR mice): No death
